Earlier results in patent US20250332117A1, “Thin Films with Peroxides and Uses Thereof” (Silverpeutics, Inc., priority 2024, published 2025).

Key:
cells = conditions: general statement, no source given
bacteria = conditions: general statement, no source given

For OO [peroxide, Hydrogen peroxide], the “peroxide concentration at which cell killing is observed” value (cells) is given as “above 500 μM” and the “peroxide concentration at which partial bacteriostatic effects are observed” value (bacteria) is given as 25 to 50 µM.
